Laboratory results from PMC12645191, “Dicarboxylate and dicarboxylic acid appended supramolecular self-associating amphiphiles as antimicrobial agents against high priority bacterial pathogens” (Organic & Biomolecular Chemistry, 2025).
In brackets after ≈: the same amount, converted by molar mass. Several values for one entry are separate records, joined by “and”; a condition that tells them apart may be missing. Equal entries are not always repeated.

What was measured:
[1] = quantitative (Q) 1H NMR spectroscopy, proportion of SSA becoming NMR silent (higher-order aggregates); format: physicochemical; conditions: for (Q) 1H NMR spectroscopy, proportion NMR silent, acid or anion / (Q) 1H NMR spectroscopy, proportion NMR silent, cation: 5.6 mM, D2O 5.0% EtOH, 298 K
Protocol: To confirm the presence of higher order self-associative structures quantitative (Q) ^1H NMR spectroscopy studies were undertaken at 5.6 mM in D2O 5% EtOH. Here the ^1H NMR resonances attributed to the EtOH are used as an internal standard.
Table S1 – Overview of results of the quantitative (Q) 1H NMR studies for 1, 3, 5, 7 and 9
5.0 % EtOH . Values given in % represent the observed proportion of the SSA that has become
Table S2 – Overview of results of the quantitative (Q) 1H NMR studies for 2, 4, 6, 8 and 10
5.0 % EtOH. Values given in % represent the observed proportion of anion and cation that has

[2] = tensiometry: critical aggregate concentration (CAC) and surface tension; format: physicochemical; conditions: for Surface tension at CAC: H2O/5.0 % EtOH
Protocol: As the (Q) ^1H NMR spectroscopy experiments conducted at 5.6 mM in a D2O 5.0% EtOH solution confirmed the presence of higher-order self-associated structures with solid-like properties, concentration dependent surface tension measurements, obtained through tensiometry, were used to calculate critical aggregate concentration (CAC). Here the CAC is defined as the point at which an increase in SSA concentration no longer decreases surface tension but instead results in the formation of higher-order self-associated structures.

[3] = dynamic light scattering (DLS) of SSA aggregates; format: physicochemical; conditions: 5.6 mM, H2O 5.0% EtOH, 298 K
Protocol: Dynamic light scattering (DLS) and zeta potential measurements in H2O 5.0% EtOH were used to determine the hydrodynamic diameter (dH) and stability of the higher-order SSA aggregates detected by (Q) ^1H NMR spectroscopy at 5.6 mM, Table 1. […] However, we are unable to confidently report a dH for 1 due to the instability of this system, which is supported by a zeta potential value of −26 mV, obtained for this SSA under the same experimental conditions. […] Due to the instability of these systems in the absence of solvent, attempts to further characterise these systems through SEM or AFM are not possible.[48]

[4] = system: P. aeruginosa PAO1; test: inhibition of bacterial growth, OD600 after 20 h; format: cell-based, Pseudomonas aeruginosa; conditions: SSA 5.0 mM, 2.5% ethanol, negative = enhanced growth
Protocol: (§1) With the self-associative properties of 1–10 established, the antimicrobial activity of these SSAs were determined against a panel of clinically relevant, high-priority pathogens including: P. aeruginosa PAO1; Klebsiella pneumonia (K. pneumoniae) M6; E. coli NCTC 12923; Acinetobacter baumannii (A. baumannii) ATCC 17978; S. aureus ATCC 9144; Enterococcus faecalis (E. faecalis) NCTC 775; and Enterococcus faecium (E. faecium) NCTC 12204. […] However, it should be noted that the SSA stock solution was prepared in a H2O 5% EtOH solution, to ensure that the SSA aggregates formed were in line with those characterised within the scope of the SSA self-association studies.
(§2) Section 3: Biological methods
(§3) These methods were taken directly from UK Health and Security Office (UKHSA) standard […]
(§4) Preparation of Luria Broth media (LB): Yeast extract (5.0 g), tryptone (10.0 g) and sodium chloride (10.0 g) were dissolved in dH₂O (1.0 L) then divided into bottles and autoclaved.
(§5) Preparation of Luria Broth (LB) agar plates: Agar (6.0 g) was added to LB (400 mL) and autoclaved. Once cool, the LB agar was poured into sterile petri dishes under sterile conditions and allowed to set. LB plates were stored at 4 °C until use.
(§6) Preparation of bacterial plates: Sterile LB agar plates were streaked using streaked using the desired bacteria i) Pseudomonas aeruginosa (P.aeruginosa) PAO1, ii) Klebsiella pneumoniae (K. pneumoniae) M6 iii) E. coli NCTC 12923 and iv) Acinetobacter baumannii (A. baumannii) ATCC 17978 and Gram-positive i) Staphylococcus aureus (S. aureus) ATCC 9144 ii) Enterococcus faecalis (E. faecalis) NCTC 775 and iii) Enterococcus faecium (E. faecium ) NCTC 12204, then incubated at 37 °C overnight.
(§7) Preparation of Inoculum: An initial culture was made up by inoculating LB media (5 mL) with a single colony of bacteria under sterile conditions and incubated at 37 °C with shaking overnight. The following day, overnight bacterial cultures were subcultured into fresh LB medium to a starting OD600 of 0.01.
(§8) Preparation of 96 well microplate for MIC50: The 1:100 cell suspension (150 µL) was dispensed into individual wells under sterile conditions. SSAs (30 µL) were added to the wells to equal a total volume of 180 µL in the wells. Six repeats of each concentration for each SSA were created each plate. The plates were sealed using parafilm, then incubated at 37 °C in a microplate reader for 20 hours. OD600 endpoint data was used to generate growth curves. […]

[5] = system: K. pneumoniae M6; test: inhibition of bacterial growth, OD600 after 20 h; format: cell-based, Klebsiella pneumoniae; conditions: SSA 5.0 mM, 2.5% ethanol, negative = enhanced growth
Protocol: as §1, §2, §3, §4, §5, §6, §7, §8

[6] = system: E. coli NCTC 12923; test: inhibition of bacterial growth, OD600 after 20 h; format: cell-based, Escherichia coli; conditions: SSA 5.0 mM, 2.5% ethanol, negative = enhanced growth
Protocol: as §1, §2, §3, §4, §5, §6, §7, §8

[7] = system: A. baumannii ATCC 17978; test: inhibition of bacterial growth, OD600 after 20 h; format: cell-based, Acinetobacter baumannii; conditions: SSA 5.0 mM, 2.5% ethanol, negative = enhanced growth
Protocol: as §1, §2, §3, §4, §5, §6, §7, §8

[8] = system: S. aureus ATCC 9144; test: inhibition of bacterial growth, OD600 after 20 h; format: cell-based, Staphylococcus aureus; conditions: SSA 5.0 mM, 2.5% ethanol, negative = enhanced growth
Protocol: as §1, §2, §3, §4, §5, §6, §7, §8

[9] = system: E. faecalis NCTC 775; test: inhibition of bacterial growth, OD600 after 20 h; format: cell-based, Enterococcus faecalis; conditions: SSA 5.0 mM, 2.5% ethanol, negative = enhanced growth
Protocol: as §1, §2, §3, §4, §5, §6, §7, §8

[10] = system: E. faecium NCTC 12204; test: inhibition of bacterial growth, OD600 after 20 h; format: cell-based, Enterococcus faecium; conditions: SSA 5.0 mM, 2.5% ethanol, negative = enhanced growth
Protocol: as §1, §2, §3, §4, §5, §6, §7, §8

[11] = kinetic solubility determination in PBS pH 7.4; conditions: PBS, pH 7.4, aqueous buffer, kinetic from dmso stock, Solubility in PBS pH 7.4, kinetic; upper limit set at 300 µM
[12] = system: all Gram-positive bacteria tested; test: inhibition of bacterial growth, span over the Gram-positive panel; format: cell-based, S. aureus, E. faecalis, E. faecium; conditions: SSA 5.0 mM, 20 hours; read-out: inhibition against all Gram-positive bacteria tested (span)
Protocol: as §1, §2, §3, §4
Preparation of Luria Broth (LB) agar plates: Agar (6.0 g) was added to LB (400 mL) and autoclaved. […]
Preparation of 96 well microplate for MIC50: The 1:100 cell suspension (150 µL) was dispensed into individual wells under sterile conditions. […] The plates were sealed using parafilm, then incubated at 37 °C in a microplate reader for 20 hours. […]

[13] = H2O 5.0% EtOH, 298 K, listed as 4

**Q.** With `COc1ccc(NC(=O)N[C@@H](CC(=O)O)C(=O)O)cc1` [SSA 8] as the molecule, how does the “(Q) 1H NMR spectroscopy, proportion NMR silent, acid or anion” value [1] read?
**A.** The value was 47%.

**Q.** What about the “(Q) 1H NMR spectroscopy, proportion NMR silent, cation” value [1] of the same molecule?
**A.** Its value is 41.8% and 42%.

**Q.** And the “(Q) 1H NMR, proportion NMR silent, cation” value ([1]; ~112 mM, DMSO-d6 1.0% DCM)?
**A.** The value was 0%.

**Q.** And the “ST at CAC” value ([2]; H2O 5.0% EtOH, 298 K, listed as 8)?
**A.** Its value is 52 mN m^−1.

**Q.** And the “Surface tension at CAC” value ([2]; listed as 8)?
**A.** The value was 51.98 mN/m.

**Q.** What about the “DLS Peak 2 maxima” value ([3]; listed as 8) of the same molecule?
**A.** Its value is 3417 nm.

**Q.** And the “Polydispersity index (%)” value ([3]; listed as 8)?
**A.** The value was 25.6 (± 1.0) %.

**Q.** And the “dH (DLS intensity distribution peak 1 maxima)” value ([3]; listed as 8)?
**A.** Its value is 313 nm.

**Q.** What about the “Percentage inhibition of bacterial growth, PAO1 (P. aeruginosa)” value ([4]; listed as 8) of the same molecule?
**A.** Its value is 37.24% and 37%.

**Q.** And the “Percentage inhibition of bacterial growth, M6 (K. pneumoniae)” value ([5]; listed as 8)?
**A.** The value was 9.69% and 10%.

**Q.** And the “Percentage inhibition of bacterial growth, NCTC 12923 (E. coli)” value ([6]; listed as 8)?
**A.** Its value is 39.33% and 39%.

**Q.** What about the “Percentage inhibition of bacterial growth, ATCC 17978 (A. baumannii)” value ([7]; listed as 8) of the same molecule?
**A.** The value was -20.26% and −20%.

**Q.** And the “Percentage inhibition of bacterial growth, ATCC 9144 (S. aureus)” value ([8]; listed as 8)?
**A.** The value was 96.79% and 97%.

**Q.** What about the “Percentage inhibition of bacterial growth, NCTC 775 (E. faecalis)” value ([9]; listed as 8) of the same molecule?
**A.** The value was 38.33% and 38%.

**Q.** And the “Percentage inhibition of bacterial growth, NCTC 12204 (E. faecium)” value ([10]; listed as 8)?
**A.** The value was -1.33% and −1%.

**Q.** With `O=C(O)Cc1ccccc1Nc1c(Cl)cccc1Cl` [Diclofenac, reference compound] as the molecule, how does the solubility [11] read?
**A.** Its solubility is 281 µM (≈ 83.2 µg/mL).

**Q.** For `O=C(O)CC[C@@H](NC(=O)Nc1ccc(C(F)(F)F)cc1)C(=O)O` [SSA 4], which “(Q) 1H NMR spectroscopy, proportion NMR silent, acid or anion” value ([1]; listed as 4) is on record?
**A.** The value was 41%.

**Q.** What about the “(Q) 1H NMR spectroscopy, proportion NMR silent, cation” value ([1]; listed as 4) of the same molecule?
**A.** Its value is 43.2% and 43%.

**Q.** What about the “(Q) 1H NMR, proportion NMR silent, SSA acid or anion” value ([1]; ~112 mM, DMSO-d6 1.0% DCM) of the same molecule?
**A.** Its value is 0%.

**Q.** What about the “(Q) 1H NMR, proportion NMR silent, cation” value ([1]; ~112 mM, DMSO-d6 1.0% DCM) of the same molecule?
**A.** The value was 0%.

**Q.** What about the CAC [2, 13] of the same molecule?
**A.** The CAC was 22.26 mM and 22 mM.

**Q.** What about the “ST at CAC” value [2, 13] of the same molecule?
**A.** Its value is 38 mN m^−1.

**Q.** And the “Surface tension at CAC” value ([2]; listed as 4)?
**A.** The value was 38.35 mN/m.

**Q.** What about the “DLS Peak 2 maxima” value ([3]; listed as 4) of the same molecule?
**A.** The value was 5118 nm.

**Q.** What about the “Polydispersity index (%)” value ([3]; listed as 4) of the same molecule?
**A.** Its value is 27.4 (± 0.8) %.

**Q.** And the “dH (DLS intensity distribution peak 1 maxima)” value ([3]; listed as 4)?
**A.** The value was 255 nm.

**Q.** What about the “Percentage inhibition of bacterial growth, PAO1 (P. aeruginosa)” value ([4]; listed as 4) of the same molecule?
**A.** The value was 10.30% and 10%.

**Q.** And the “Percentage inhibition of bacterial growth, M6 (K. pneumoniae)” value ([5]; listed as 4)?
**A.** Its value is 19.93% and 20%.

**Q.** And the “Percentage inhibition of bacterial growth, NCTC 12923 (E. coli)” value ([6]; listed as 4)?
**A.** Its value is 39.02% and 39%.

**Q.** And the “Percentage inhibition of bacterial growth, ATCC 17978 (A. baumannii)” value ([7]; listed as 4)?
**A.** Its value is -20.93% and −21%.

**Q.** What about the “Percentage inhibition of bacterial growth, ATCC 9144 (S. aureus)” value ([8]; listed as 4) of the same molecule?
**A.** Its value is 98.85% and 99%.

**Q.** What about the “Percentage inhibition of bacterial growth, NCTC 775 (E. faecalis)” value ([9]; listed as 4) of the same molecule?
**A.** The value was 98.82% and 99%.

**Q.** And the “Percentage inhibition of bacterial growth, NCTC 12204 (E. faecium)” value ([10]; listed as 4)?
**A.** Its value is 99.74% and 100%.

**Q.** What about the inhibition at 5000 µM [12] of the same molecule?
**A.** Its inhibition at 5000 µM is 99 to 100%.
